pKi: −log10 of the molar value.

For data set [1] the following is noted: cited from earlier work.
In data set [2] the target is PCP site of the NMDA receptor. In kind it is binding. The conditions noted are these: read-out: [3H]TCP Ki; [3H]TCP as radioligand; rat brain membrane suspensions; mean from two experiments.

Take `CN(C(=N)Nc1cccc2ccccc12)c1cccc(I)c1` [Ligand 1]: in data set [1], the “measured logD” value is listed as 2.19.

The term pKi denotes −log10 of the Ki, conventionally taken in molar units. On to `CN(C(=N)Nc1cccc2ccccc12)c1cccc(Cl)c1F` [Ligand 34], for which, in data set [2], the negative-log Ki (pKi) was 6.15.

The record behind these values is article PMC4293695 (Bioorganic & medicinal chemistry letters, 2014).
